“And” between values parts separate entries of the source, which are not always exact repeats. Identical values can stand only once. Toxic doses and inconclusive results are not listed.
Test system: BDF1 mice, B16 melanoma ip, median survival T/C
Assay: NCI In Vivo Anticancer Drug Screen. Data for tumor model B16 Melanoma (intraperitoneal) in B6D2F1 (BDF1) mice
Settings: endpoint: median survival time, higher = longer survival
Method in brief: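 Transplantable tumor model; survival or tumor size measured; reported as T/C, treated over vehicle control.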

[1] = dose: 6.25 mg/kg/injection, schedule: Q01DX009 (ip), vehicle: saline with Tween-80
[2] = dose: 12.5 mg/kg/injection, schedule: Q01DX009 (ip), vehicle: saline with Tween-80
[3] = dose: 12.5 mg/kg/injection, schedule: Q01DX009 (ip), vehicle: saline
[4] = dose: 25.0 mg/kg/injection, schedule: Q01DX009 (ip), vehicle: saline
[5] = dose: 12.5 mg/kg/injection, schedule: Q01DX009 (ip), vehicle: Klucel (hydroxypropylcellulose) (HPC)
[6] = dose: 25.0 mg/kg/injection, schedule: Q01DX009 (ip), vehicle: Klucel (hydroxypropylcellulose) (HPC)
[7] = dose: 50.0 mg/kg/injection, schedule: Q01DX009 (ip), vehicle: Klucel (hydroxypropylcellulose) (HPC)
[8] = dose: 100.0 mg/kg/injection, schedule: Q01DX009 (ip), vehicle: Klucel (hydroxypropylcellulose) (HPC)
[9] = dose: 200.0 mg/kg/injection, schedule: Q01DX009 (ip), vehicle: Klucel (hydroxypropylcellulose) (HPC)
[10] = dose: 100.0 mg/kg/injection, schedule: Q01DX009 (ip), vehicle: saline with Tween-80
[11] = dose: 200.0 mg/kg/injection, schedule: Q01DX009 (ip), vehicle: saline with Tween-80
[12] = dose: 400.0 mg/kg/injection, schedule: Q01DX009 (ip), vehicle: saline with Tween-80
[13] = dose: 25.0 mg/kg/injection, schedule: Q01DX009 (ip), vehicle: saline with Tween-80
[14] = dose: 50.0 mg/kg/injection, schedule: Q01DX009 (ip), vehicle: saline with Tween-80
[15] = dose: 1.56 mg/kg/injection, schedule: Q01DX009 (ip), vehicle: Klucel (hydroxypropylcellulose) (HPC)

With `NC(=S)N/N=C/c1cc(-c2cccc(N)c2)ccn1` the T/C [1] was 104 % of control and 123 % of control and 124 % of control, the T/C [2] was 122 % of control and the T/C [3] was 166 % of control. The T/C [4] was 156 % of control, the T/C (dose: 37.5 mg/kg/injection, schedule: Q04DX003 (ip), vehicle: saline) was 166 % of control and the T/C (dose: 75.0 mg/kg/injection, schedule: Q01DX009 (ip), vehicle: saline with Tween-80) was 124 % of control. The T/C (dose: 75.0 mg/kg/injection, schedule: Q04DX003 (ip), vehicle: saline) was 156 % of control and the T/C (dose: 150.0 mg/kg/injection, schedule: Q04DX003 (ip), vehicle: saline) was 150 % of control.

For `C[C@H]1CN1C1=CC(=O)C(N2C[C@@H]2C)=CC1=O`, the T/C (dose: 0.5 mg/kg/injection, schedule: Q01DX009 (ip), vehicle: saline with Tween-80) was 102 % of control, the T/C (dose: 1.0 mg/kg/injection, schedule: Q01DX009 (ip), vehicle: saline with Tween-80) was 106 % of control and the T/C (dose: 2.0 mg/kg/injection, schedule: Q01DX009 (ip), vehicle: Klucel (hydroxypropylcellulose) (HPC)) was 123 % of control. The T/C (dose: 4.0 mg/kg/injection, schedule: Q01DX009 (ip), vehicle: Klucel (hydroxypropylcellulose) (HPC)) was 115 % of control.

`O=C1CNC(c2ccccc2)c2cc(Cl)ccc2N1` (centres undefined) was tested, and the T/C [5] was 107 % of control, the T/C [6] was 97 % of control and the T/C [7] was 107 % of control. For the same molecule, the T/C [8] was 94 % of control and the T/C [9] was 102 % of control.

In the case of `CCCCNC(C)(C)C(SSSC(c1ccc(Cl)cc1)C(C)(C)NCCCC)c1ccc(Cl)cc1` (centres undefined), the T/C [5] is reported as 97 % of control and the T/C [6] is reported as 89 % of control.

For `CC(=O)OC(OC(C)=O)c1ccc([N+](=O)[O-])cc1`, the T/C [10] was 93 % of control, the T/C [11] was 95 % of control and the T/C [12] was 86 % of control.

In the case of `O=C(c1ccccc1)C1NC1c1ccccc1` (centres undefined), the T/C (dose: 20.0 mg/kg/injection, schedule: Q01DX009 (ip), vehicle: Klucel (hydroxypropylcellulose) (HPC)) is reported as 100 % of control, the T/C (dose: 40.0 mg/kg/injection, schedule: Q01DX009 (ip), vehicle: Klucel (hydroxypropylcellulose) (HPC)) is reported as 97 % of control and the T/C (dose: 80.0 mg/kg/injection, schedule: Q01DX009 (ip), vehicle: Klucel (hydroxypropylcellulose) (HPC)) is reported as 94 % of control.

With `N=C(N)SCc1c2ccccc2c(CSC(=N)N)c2ccccc12` the T/C [3] was 238 % of control and the T/C [4] was 285 % of control.

In the case of `CC(=O)ON=C1C=CC(=C(C#N)c2ccccc2)C=C1`, the T/C [13] is reported as 86 % of control, the T/C [14] is reported as 86 % of control and the T/C [10] is reported as 92 % of control.

`COc1cc2c[n+](C)c3c(c2cc1OC)Cc1cc2c(cc1-3)OCO2` was tested, and the T/C [10] was 120 % of control.

For `NC1=NC(=S)C2N=C(N=Nc3ccc(C(=O)NC(CCC(=O)O)C(=O)O)cc3)N=C2N1` (centres undefined), the T/C (dose: 0.09 mg/kg/injection, schedule: Q01DX009 (ip), vehicle: Klucel (hydroxypropylcellulose) (HPC)) was 100 % of control, the T/C (dose: 0.19 mg/kg/injection, schedule: Q01DX009 (ip), vehicle: Klucel (hydroxypropylcellulose) (HPC)) was 107 % of control and the T/C (dose: 0.39 mg/kg/injection, schedule: Q01DX009 (ip), vehicle: Klucel (hydroxypropylcellulose) (HPC)) was 111 % of control. For the same molecule, the T/C (dose: 0.78 mg/kg/injection, schedule: Q01DX009 (ip), vehicle: Klucel (hydroxypropylcellulose) (HPC)) was 107 % of control and the T/C [15] was 89 % of control.

For `O=c1cc[nH]c(=O)o1`, the T/C (dose: 6.25 mg/kg/injection, schedule: Q01DX009 (ip), vehicle: water) was 104 % of control, the T/C (dose: 12.5 mg/kg/injection, schedule: Q01DX009 (ip), vehicle: water) was 111 % of control and the T/C (dose: 25.0 mg/kg/injection, schedule: Q01DX009 (ip), vehicle: water) was 108 % of control.

`CCCCCCCCC(=O)CCC` was tested, and the T/C (dose: 100.0 mg/kg/injection, schedule: Q04DX003 (ip), vehicle: Klucel (hydroxypropylcellulose) (HPC)) was 88 % of control, the T/C (dose: 200.0 mg/kg/injection, schedule: Q04DX003 (ip), vehicle: Klucel (hydroxypropylcellulose) (HPC)) was 90 % of control and the T/C (dose: 400.0 mg/kg/injection, schedule: Q04DX003 (ip), vehicle: Klucel (hydroxypropylcellulose) (HPC)) was 94 % of control.

In the case of `CSc1nc(C)cc(Cl)n1`, the T/C [14] is reported as 104 % of control, the T/C [10] is reported as 113 % of control and the T/C [11] is reported as 90 % of control.

`CSc1nc2cc(C)c(C)cc2[nH]1` was tested, and the T/C [13] was 100 % of control, the T/C [14] was 97 % of control and the T/C [10] was 97 % of control and 102 % of control.

`NC(=O)CN1C(=O)c2ccccc2C1=O` was tested, and the T/C [10] was 97 % of control, the T/C [11] was 104 % of control and the T/C [12] was 97 % of control.

With `Cc1ccc(S(=O)(=O)N2CCC(C(=O)O)(c3ccccc3)CC2)cc1` the T/C [14] was 113 % of control, the T/C [10] was 99 % of control and the T/C [11] was 103 % of control.

For `COC(=O)C(CCCN=C(N)N)NC(=O)OCc1ccccc1` (centres undefined), the T/C (dose: 100.0 mg/kg/injection, schedule: Q04DX003 (ip), vehicle: saline) was 100 % of control and the T/C (dose: 200.0 mg/kg/injection, schedule: Q04DX003 (ip), vehicle: saline) was 95 % of control.

For `COc1cccc(OC)c1C(c1c(OC)cccc1OC)c1c(OC)cccc1OC`, the T/C (dose: 25.0 mg/kg/injection, schedule: Q04DX003 (ip), vehicle: saline with Tween-80) was 120 % of control, the T/C (dose: 50.0 mg/kg/injection, schedule: Q04DX003 (ip), vehicle: saline with Tween-80) was 108 % of control and the T/C (dose: 100.0 mg/kg/injection, schedule: Q04DX003 (ip), vehicle: saline with Tween-80) was 114 % of control.

With `COC(=O)C[C@](O)(CCC(C)(C)O)C(=O)O[C@@H]1C(OC)=C[C@]23CCCN2CCc2cc4c(cc2[C@H]13)OCO4` the T/C (dose: 0.25 mg/kg/injection, schedule: Q01DX009 (ip), vehicle: saline) was 152 % of control, the T/C (dose: 1.0 mg/kg/injection, schedule: Q01DX009 (ip), vehicle: saline) was 150 % of control and the T/C (dose: 2.0 mg/kg/injection, schedule: Q01DX009 (ip), vehicle: saline) was 102 % of control. For the same molecule, the T/C (dose: 32.0 micrograms/kg/injection, schedule: Q01DX009 (ip), vehicle: saline) was 104 % of control, the T/C (dose: 63.0 micrograms/kg/injection, schedule: Q01DX009 (ip), vehicle: saline) was 109 % of control and the T/C (dose: 125.0 micrograms/kg/injection, schedule: Q01DX009 (ip), vehicle: saline) was 113 % of control.

`CCCCC1CCCCCCc2[nH]c(/C=C3\N=C(c4ccc[nH]4)C=C3OC)cc21` (centres undefined) was tested, and the T/C (dose: 62.0 micrograms/kg/injection, schedule: Q01DX009 (ip), vehicle: saline with Tween-80) was 106 % of control, the T/C (dose: 125.0 micrograms/kg/injection, schedule: Q01DX009 (ip), vehicle: saline with Tween-80) was 96 % of control and the T/C (dose: 250.0 micrograms/kg/injection, schedule: Q01DX009 (ip), vehicle: saline with Tween-80) was 92 % of control. For the same molecule, the T/C (dose: 500.0 micrograms/kg/injection, schedule: Q01DX009 (ip), vehicle: saline with Tween-80) was 103 % of control.

With `C1CC[N-]CC1.CC(=N\O)/C(C)=N/O.CC(=N\O)/C(C)=N/O.[CH-]1CCCCC1.[Co+2]` the T/C [7] was 97 % of control and the T/C [8] was 94 % of control.

`N#Cc1ccc(C(=O)C=C(C(F)(F)F)C(F)(F)F)cc1` was tested, and the T/C (dose: 1.56 mg/kg/injection, schedule: Q01DX009 (ip), vehicle: saline with Tween-80) was 99 % of control, the T/C (dose: 3.12 mg/kg/injection, schedule: Q01DX009 (ip), vehicle: saline with Tween-80) was 100 % of control and the T/C [1] was 99 % of control. The T/C [2] was 93 % of control.

With `O=C1C=C[C@H](O)[C@@]2(CO)O[C@@H]12` the T/C (dose: 1.25 mg/kg/injection, schedule: Q01DX009 (ip), vehicle: saline with Tween-80) was 101 % of control, the T/C (dose: 2.5 mg/kg/injection, schedule: Q01DX009 (ip), vehicle: saline with Tween-80) was 101 % of control and the T/C (dose: 5.0 mg/kg/injection, schedule: Q01DX009 (ip), vehicle: saline with Tween-80) was 122 % of control. The T/C (dose: 10.0 mg/kg/injection, schedule: Q01DX009 (ip), vehicle: saline with Tween-80) was 104 % of control.

For `C=C1C(=O)OC2/C=C(\CO)C(OC(C)=O)CC(O)/C(C)=C/C(OC(=O)C(C)CC)C12` (centres undefined), the T/C [15] was 108 % of control, the T/C (dose: 3.13 mg/kg/injection, schedule: Q01DX009 (ip), vehicle: Klucel (hydroxypropylcellulose) (HPC)) was 101 % of control and the T/C (dose: 6.25 mg/kg/injection, schedule: Q01DX009 (ip), vehicle: Klucel (hydroxypropylcellulose) (HPC)) was 109 % of control.

`CCCCCC/C=C\C(=O)O` was tested, and the T/C [1] was 94 % of control and 95 % of control, the T/C [2] was 93 % of control and 104 % of control and the T/C [13] was 93 % of control and 98 % of control. For the same molecule, the T/C [14] was 88 % of control.

`O=C(Nc1ccccc1)c1ccc(Cl)c([N+](=O)[O-])c1` was tested, and the T/C [13] was 113 % of control, the T/C [14] was 111 % of control and the T/C [10] was 106 % of control.

`[Cl][Ge]([c]1ccccc1)([c]1ccccc1)[c]1ccccc1` was tested, and the T/C [8] was 96 % of control, the T/C [9] was 96 % of control and the T/C (dose: 400.0 mg/kg/injection, schedule: Q01DX009 (ip), vehicle: Klucel (hydroxypropylcellulose) (HPC)) was 100 % of control.

With `C[P+](C)(Cc1ccc([N+](=O)[O-])cc1)c1ccccc1` the T/C [6] was 98 % of control and the T/C [7] was 100 % of control.

Source: PubChem BioAssay AID192 (DTP/NCI, 2004)
